From patent US5639902A, “(Cyclohexyl)alkene compounds” (Adir et Compagnie, priority 1993, dated 1997)
pIC50: −log10 of the molar value. Blank lines part the entries; values can stand above or below the molecule they belong to.

Columns and labels:
LTB4 receptors = biological target: T1, LTB4 receptors (Homo sapiens, UniProt Q15722); experiment: Study of binding to LTB4 (Leukotriene B4) receptors on human PMN, displacement of [^3 H]LTB4; conditions: for pIC50: human PMN (10^6 cells), 1 nM [^3 H]LTB4, 20 min at 4° C., read-out: 50% inhibition (IC50) of the binding of [^3 H]LTB4
T1 construct: Human PMN are isolated from heparinized venous blood of healthy donors; endogenous in cells; host or cells: human polymorphonuclear leukocytes (PMN) from venous blood of healthy donors
Protocol: Human PMN are isolated from heparinized venous blood of healthy donors by sedimentation on dextran T500. The supernatant is centrifuged on Ficoll Paque®, and the residual erythrocytes are removed by hypotonic lysis. The PMN are washed with Hank's isotonic saline solution (HBSS) free from Ca^2+ and Mg^2+.
[…] is verified by the trypan blue exclusion technique.
Study of binding to LTB4 receptors
Binding to PMN is carried out in HBSS free from Ca^2+ and Mg^2+ containing 5 mM HEPES buffer.
The PMN (10^6 cells) are incubated for 20 min at 4° C. with 1 nM [^3 H]LTB4 in the presence or absence of non-radioactive LTB4 or of the compounds of the invention at various concentrations.

human PMN = experiment: Inhibition of LTB4-induced chemotaxis of human PMN in vitro (BOYDEN-KELLER chambers); assay type: cell-based
Protocol: STUDY OF THE ACTIVITY OF THE COMPOUNDS OF THE INVENTION WITH RESPECT TO THE CHEMOTAXIS OF HUMAN PMN IN VITRO
PMN incubated in HBSS without Ca^2+ or Mg^2+ are labeled with ^51 chromium (1 μL Ci/10^6 cells) for 1 hour at 37° C. and then washed twice with HBSS.
The PMN are then resuspended at a concentration of 10^7 cells/cm^3 in Hank's buffer with the addition of 1% bovine albumin. LTB4 and the compounds of the invention dissolved in Hank buffer are introduced into the lower part of BOYDEN-KELLER chambers, two cellulose nitrate filters (Millipore, 3 μm) are placed on each well and the upper part of the chambers is filled with the cell suspension (Methods Enzymol 1988, vol. 162, pp 59-64).
The chambers are incubated for 150 min at 37° C. under an atmosphere of 95% humidified air and 5% CO2.
The radioactivity of the lower filter is measured with a scintillation spectrometer (Beckman LS 3801).

[1] = tested on: LTB4-induced contraction of parenchymatous strips of guinea pig lung; experiment: LTB4-induced contraction of isolated parenchymatous lung strips; set-up: species or system DUNKIN HARTLEY guinea pig; conditions: contraction stimulated with 30 nM LTB4, compound added 2 min before; read-out: 50% inhibition of the contraction (IC50)
Protocol: STUDY OF THE ACTIVITY OF THE COMPOUNDS OF THE INVENTION WITH RESPECT TO THE CONTRACTION OF PARENCHYMATOUS LUNG STRIPS
LTB4 has a contracting effect on isolated parenchymatous strips of guinea pig lung. The antagonist activity of the compounds of the invention with respect to this LTB4 -induced contraction is tested.
Parenchymatous strips of DUNKIN HARTLEY guinea pig lung are cut and placed in baths containing Tyrode's solution oxygenated with a stream of gas (95% O2 /5% CO2). The strips are connected to a polygraph (GOULD Statham) with an isometric tension of 400 mg. After 1 h of equilibrium, 1 μM mepyramine and 10 μM atroprine are added to the Tyrode's solution, and the compounds of the invention are tested for their antagonist activities. The contractile responses are recorded over 5 min. The antagonist activities of the compounds of the invention are tested by adding these compounds to the bath 2 min before stimulation of contraction with 30 nM LTB4.

[2] = tested on: swelling of the ear of a mouse; experiment: Topical inflammatory model (psoriasis), arachidonic acid ear swelling; assay type: in vivo; conditions: dose of 20 mg/ear, arachidonic acid 2 mg, 60 min
Protocol: STUDY OF THE ACTIVITY OF THE COMPOUNDS OF THE INVENTION WITH RESPECT TO A TOPICAL INFLAMMATORY MODEL (psoriasis)
The present test enables the anti-inflammatory activity of the compounds of the invention with respect to such dermal lesions to be tested.
(Current Test Protocols-Pharmacology Service-Panlabs-June 92).
Arachidonic acid (2 mg in 20 μl of an acetone/pyridine/water (7:2:1) mixture) is applied topically to the anterior and posterior surfaces of the right ear of a mouse 30 min after a similar application of the test compound or of the vehicle (20 μl). The swelling of the ear is measured by a Dyer type gauge after 60 min as an index of the inflammation.
The percentage inhibition is calculated according to the formula: Ic-lt/Ic×100, in which Ic and It represent the increase in thickness (in mm) of the ear in the control mouse and in the treated mouse, respectively.

[3] = Solubility of the salt in water; assay type: physicochemical; conditions: sodium salt
[4] = Stability of the solution of the salt; assay type: physicochemical; conditions: sodium salt, aqueous solution

T1 sequence (Q15722 whole entry): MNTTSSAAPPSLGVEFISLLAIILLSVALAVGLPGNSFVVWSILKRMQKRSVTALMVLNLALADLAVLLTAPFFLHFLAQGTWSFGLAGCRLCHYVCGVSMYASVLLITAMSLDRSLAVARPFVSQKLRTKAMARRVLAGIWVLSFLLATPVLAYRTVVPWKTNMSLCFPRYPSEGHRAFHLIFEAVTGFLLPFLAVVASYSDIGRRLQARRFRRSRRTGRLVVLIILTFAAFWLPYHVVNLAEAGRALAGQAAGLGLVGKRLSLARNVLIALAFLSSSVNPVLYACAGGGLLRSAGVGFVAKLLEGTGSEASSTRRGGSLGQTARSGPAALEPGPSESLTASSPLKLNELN

pIC50 (LTB4 receptors): 6.70 | pIC50 [1]: 7.40
Compound: O=C(O)C[C@]1(O)CCC[C@H](/C=C/C(O)CCCCc2ccccc2)C1 (relative stereo) [Example 7, (1S*,3S*)-1-HYDROXY-3-[(3R*S*,E)-3-HYDROXY-7-PHENYL-1-HEPTEN-1-YL]-1-CYCLOHEXANE-ACETIC ACID]
inhibition of the action of LTB4 on cell migration (in words) (human PMN; up to a concentration of 50 μM): total inhibition | decrease in the volume of the ear [2]: 30%

solubility [3]: 100 mg/mL | Stability of the solution [4]: more than 18 months
Compound: O=C(O)C[C@]1(O)CCC[C@H](/C=C/C(O)CCCCc2ccccc2)C1 (relative stereo) [Sodium (1S*,3S*)-1-hydroxy-3-[(3R*S*,E)-3-hydroxy-7-phenyl-1-hepten-1-yl]-1-cyclohexaneacetate]

Compound: CN(C)C(=O)C[C@]1(O)CCC[C@H](/C=C/C(O)CCCCc2ccccc2)C1 (single isomer, unassigned) [Example 69, (1S*,3S*)-1-HYDROXY-3-[(3R*S*,E)-3-HYDROXY-7-PHENYL-1-HEPTEN-1-YL]CYCLOHEXANE-1-(N,N-DIMETHYLACETAMIDE)]
pIC50 (LTB4 receptors): 6.30

Compound: CN(C)C(=O)C[C@@]1(O)CCC[C@H](/C=C/C(O)CCCCc2ccccc2)C1 (single isomer, unassigned) [Example 71, (1R*,3S*,E)-1-HYDROXY-3-[(3R*S*,E)-3-HYDROXY-7-PHENYL-1-HEPTEN-1-YL]CYCLOHEXANE-1-(N,N-DIMETHYLACETAMIDE)]
pIC50 (LTB4 receptors): 5.70

Compound: CCCCC/C=C\C[C@@H](O)/C=C/C=C/C=C\[C@@H](O)CCCC(=O)O [LTB4, Leukotriene B4, reference compound]
displacement of [^3 H]LTB4 from its specific binding sites (in words) (LTB4 receptors; human PMN, [^3 H]LTB4 (1 nM), increasing doses of unlabeled LTB4): dose-dependent displacement | effect on the spontaneous migration of human PMN (in words) (human PMN; LTB4 0.1 to 100 nM, BOYDEN-KELLER chambers): causes an activation of the spontaneous migration
